Results on ten molecules are retold here after ChEMBL document CHEMBL1201862, “PubChem BioAssay data set” (2004).

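Growth conditions: 96-well plates. Treatment: test compound, 48 hours, 5 concentrations. Analysis: linear interpolation between bracketing concentrations; unreached endpoints set to highest concentration. GI50: concentration for 50% inhibition of growth.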 Activity calls are given as the source filed them. Rule as the data show it: active = GI50 up to about 1.1 µM and inactive = higher.

Common to all, as to assay: NCI anticancer screen, dose series, 48 h
Assay [1] relates to ACHN.
Assay [2] has as its system RPMI-8226.
Assay [3] concerns SNB-19.
Assay [4] deals with KM12.
The test system of assay [5] is DU-145.
Assay [6] concerns IGROV-1.
The subject of assay [7] is MDA-N.
In assay [8] the test system is TK-10.
Assay [9] relates to K562.
Assay [10] relates to SK-MEL-28.
Assay [11] has as its system UO-31.
For assay [12], the system named is SK-MEL-5.
Assay [13] has as its system NCI/ADR-RES.
For assay [14], the system named is UACC-62.
The test system of assay [15] is SK-OV-3.
The subject of assay [16] is RXF 393.
The subject of assay [17] is U-251.
The subject of assay [18] is NCI-H522.
Assay [19] deals with OVCAR-4.
Assay [20] concerns SF-268.

With `Clc1ccc(C2ON=C(c3ccccc3)N2C23CC4CC(CC(C4)C2)C3)c(Cl)c1` (configuration not stated), the GI50 in [1], in [2], in assay [3], in [4], in assay [5] and in [6] was > 10 µM (inactive) throughout. The GI50 in assay [7], in assay [8], in assay [9], in assay [10], in assay [11] and in [12] was > 10 µM (inactive) each time. Besides, the GI50 in assay [13], in assay [14], in [15], in [16], in assay [17] and in assay [18] was > 10 µM (inactive) throughout. For the same molecule, the GI50 in [19] and in assay [20] was > 10 µM (inactive) throughout.

Turning to `c1ccc(-c2cnc(-c3ccc(-c4ncc(-c5ccccc5)o4)cc3)o2)cc1`, the GI50 in assay [1], in assay [2], in [3], in assay [4], in [5] and in assay [6] was > 100 µM (inactive) each time. The GI50 in assay [7], in assay [8], in [9], in assay [10], in assay [11] and in [12] was > 100 µM (inactive) in each case. The GI50 in assay [13], in [14], in [15], in assay [16], in assay [17] and in [18] was > 100 µM (inactive) each time. The GI50 in [19] and in assay [20] was > 100 µM (inactive) each time.

As to `COc1ccc(/C=N/NC(=S)Nc2cc(C)ccc2OC)cc1`, the GI50 in assay [1] is 37.2 µM (inactive); in [2], 11.1 µM (inactive); in assay [3], 46.1 µM (inactive); in [4] it was 31.7 µM (inactive); in assay [5] it was 45 µM (inactive); in assay [6], 33.5 µM (inactive). Also, the GI50 is 21.1 µM (inactive) in [7]; 0.63 µM (active) in assay [9]; 34.8 µM (inactive) in assay [10]; 37.9 µM (inactive) in [11]; 15.6 µM (inactive) in assay [12]; 41.9 µM (inactive) in [13]. Moreover, the GI50 was 36.1 µM (inactive) in assay [14]; 51.8 µM (inactive) in [15]; 33.7 µM (inactive) in [16]; 19.3 µM (inactive) in assay [18]; 23.8 µM (inactive) in assay [19]; 48.9 µM (inactive) in assay [20].

With `COc1ccc(C2OC(c3ccncc3)=NN2C)cc1OC` (configuration not stated), the GI50 in [1], in assay [2], in assay [3], in [4], in assay [5] and in assay [6] was > 100 µM (inactive) each time. In addition, the GI50 in assay [7] is > 100 µM (inactive); in assay [8], 79.4 µM (inactive); in assay [9], > 100 µM (inactive); in [10], > 100 µM (inactive); in [11] it was 60.1 µM (inactive); in assay [12], 92.5 µM (inactive). Besides, the GI50 is > 100 µM (inactive) in [13]; > 100 µM (inactive) in [14]; > 100 µM (inactive) in [15]; 93.5 µM (inactive) in assay [16]; > 100 µM (inactive) in assay [17]; > 100 µM (inactive) in assay [18]. Moreover, the GI50 in assay [19] and in assay [20] was > 100 µM (inactive) throughout.

As for `CC(C)OC(=O)c1ccc(NCc2cc(O)ccc2O)cc1`, the GI50 in assay [1] was 3.6 µM (inactive); in assay [2], 0.483 µM (active); in assay [3] it was 3.3 µM (inactive); in assay [4], 3.38 µM (inactive); in assay [5], 6.11 µM (inactive); in [6], 3.45 µM (inactive). Also, the GI50 was 2.52 µM (inactive) in assay [7]; 4.53 µM (inactive) in [8]; 0.946 µM (active) in assay [9]; 8 µM (inactive) in [10]; 1.51 µM (inactive) in assay [11]; 3.29 µM (inactive) in assay [12]. For the same molecule, the GI50 was 1.95 µM (inactive) in assay [13]; 10.6 µM (inactive) in assay [14]; 17.3 µM (inactive) in assay [15]; 1.32 µM (inactive) in [16]; 4.32 µM (inactive) in assay [17]; 0.21 µM (active) in [18]. In addition, the GI50 is 5.05 µM (inactive) in assay [19] and 4.07 µM (inactive) in assay [20].

Consider `O=C1/C(=C/C=C/c2ccccc2)N=C(c2ccccc2)N1c1ccc(S(=O)(=O)Nc2nccs2)cc1`, for which the GI50 in [1] was 17.8 µM (inactive); in [2], 21.9 µM (inactive); in [3], 37.2 µM (inactive); in assay [4], 26.5 µM (inactive); in assay [5], 37.8 µM (inactive); in [6], 20.2 µM (inactive). Moreover, the GI50 in assay [7] is 27.7 µM (inactive); in assay [8], 30.8 µM (inactive); in assay [9] it was 40.2 µM (inactive); in assay [11], 15.6 µM (inactive); in assay [12], 20.6 µM (inactive); in assay [13], > 100 µM (inactive). In addition, the GI50 in assay [14] is 18.2 µM (inactive); in [15], 28.1 µM (inactive); in [16], 13.2 µM (inactive); in assay [17], 17.9 µM (inactive); in assay [18], 14.3 µM (inactive); in [19], 30 µM (inactive). For the same molecule, the GI50 in [20] is 14 µM (inactive).

Take `COc1ccc(C)cc1Nc1nnc(-c2ccccc2N)s1`: the GI50 in [1] was 51.8 µM (inactive); in assay [2] it was 18.1 µM (inactive); in assay [3], > 100 µM (inactive); in assay [4], 28.4 µM (inactive); in [5], > 100 µM (inactive); in assay [6], 18 µM (inactive). The GI50 in assay [7] is 28.9 µM (inactive); in [9], 13.7 µM (inactive); in assay [10] it was 53.3 µM (inactive); in assay [11] it was 36.8 µM (inactive); in assay [12], 13.7 µM (inactive); in assay [13], 34.8 µM (inactive). For the same molecule, the GI50 in assay [14] is 37.3 µM (inactive); in [15], > 100 µM (inactive); in [16], 55.1 µM (inactive); in assay [18], 20.2 µM (inactive); in assay [19], 26.1 µM (inactive); in assay [20] it was > 100 µM (inactive).

Turning to `c1ccc2c(CC3NCCN3)cccc2c1`, the GI50 in assay [1], in assay [2], in [3], in [4], in [5] and in assay [6] was > 100 µM (inactive) throughout. Besides, the GI50 in [7], in [8], in assay [9], in assay [10], in assay [12] and in assay [13] was > 100 µM (inactive) throughout. Further, the GI50 in assay [14], in [15], in [16], in assay [17], in assay [18] and in [19] was > 100 µM (inactive) in each case. Also, the GI50 in assay [20] is > 100 µM (inactive).

As to `Cc1c2ccccc2c(C2C3C(=O)N(c4ccc(Br)cc4)C(=O)C3ON2C(C(N)=O)c2ccccc2)c2ccccc12` (configuration not stated), the GI50 in [1] is 4.12 µM (inactive); in [2], 1.89 µM (inactive); in [3] it was 4.8 µM (inactive); in assay [4], 4.11 µM (inactive); in assay [5] it was 6.43 µM (inactive); in assay [6], 3.4 µM (inactive). In addition, the GI50 in assay [7] is 4.86 µM (inactive); in assay [9] it was 4.11 µM (inactive); in assay [10] it was 17.9 µM (inactive); in [11], 10 µM (inactive); in assay [12], 3.1 µM (inactive); in assay [13] it was 4.39 µM (inactive). Moreover, the GI50 is 9.35 µM (inactive) in assay [14]; 11.7 µM (inactive) in assay [15]; 11.7 µM (inactive) in [16]; 2.69 µM (inactive) in assay [17]; 2.79 µM (inactive) in assay [18]; 4.94 µM (inactive) in [19]. For the same molecule, the GI50 in assay [20] was 9.14 µM (inactive).

`C[N+](C)(CCCn1ccnc1[N+](=O)[O-])CCCn1ccnc1[N+](=O)[O-]`: the GI50 in assay [1], in assay [2], in [4], in assay [5], in assay [6] and in assay [7] was > 100 µM (inactive) throughout. The GI50 in assay [8], in assay [9], in [10], in [11], in assay [12] and in assay [13] was > 100 µM (inactive) throughout. Further, the GI50 in [14], in [15], in assay [16], in assay [17], in [18] and in assay [19] was > 100 µM (inactive) in each case. Besides, in [20], the GI50 was > 100 µM (inactive).
